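Tested at 5 concentrations; 48 h exposure; 96-well plates; endpoints linearly interpolated, else capped at highest concentration. GI50 is the concentration that inhibits growth by half. The concentration for full growth arrest is given as TGI.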
Key:
Assay in all cases: DTP human tumour cell line panel, 48 h
NCI-H226 lung = system: NCI-H226 lung
UACC-257 melanoma = system: UACC-257 melanoma
UO-31 renal = system: UO-31 renal
HOP-62 NSCLC = system: HOP-62 NSCLC
SK-MEL-2 melanoma = system: SK-MEL-2 melanoma
HS 578T breast = system: HS 578T breast
SW-620 colon = system: SW-620 colon
K-562 leukemia = system: K-562 leukemia
T-47D breast = system: T-47D breast
MALME-3M melanoma = system: MALME-3M melanoma
NCI-H460 lung = system: NCI-H460 lung
SK-MEL-5 melanoma = system: SK-MEL-5 melanoma
NCI/ADR-RES ovarian = system: NCI/ADR-RES ovarian
ACHN renal = system: ACHN renal
UACC-62 melanoma = system: UACC-62 melanoma
786-0 renal = system: 786-0 renal
A549 NSCLC = system: A549 NSCLC
SF-268 CNS = system: SF-268 CNS
EKVX NSCLC = system: EKVX NSCLC
COLO 205 colon = system: COLO 205 colon
MDA-MB-231 breast = system: MDA-MB-231 breast
BT-549 breast = system: BT-549 breast
RXF 393 renal = system: RXF 393 renal
PC-3 prostate = system: PC-3 prostate
LOX IMVI melanoma = system: LOX IMVI melanoma
MDA-MB-435 = system: MDA-MB-435
OVCAR-3 ovarian = system: OVCAR-3 ovarian
CAKI-1 renal = system: CAKI-1 renal
HCC-2998 colon = system: HCC-2998 colon
HOP-92 NSCLC = system: HOP-92 NSCLC
DU-145 prostate = system: DU-145 prostate
HCT-15 colon = system: HCT-15 colon
OVCAR-8 ovarian = system: OVCAR-8 ovarian
CCRF-CEM leukemia = system: CCRF-CEM leukemia
SNB-75 CNS = system: SNB-75 CNS
U251 CNS = system: U251 CNS
NCI-H522 lung = system: NCI-H522 lung
SNB-19 CNS = system: SNB-19 CNS
SK-MEL-28 melanoma = system: SK-MEL-28 melanoma
OVCAR-5 ovarian = system: OVCAR-5 ovarian
IGROV1 ovarian = system: IGROV1 ovarian
RPMI-8226 leukemia = system: RPMI-8226 leukemia
SF-295 CNS = system: SF-295 CNS
MOLT-4 leukemia = system: MOLT-4 leukemia
MCF7 breast = system: MCF7 breast
KM12 colon = system: KM12 colon
HT29 colon = system: HT29 colon
SN12C renal = system: SN12C renal
HCT-116 colon = system: HCT-116 colon
NCI-H23 lung = system: NCI-H23 lung
SF-539 CNS = system: SF-539 CNS
SK-OV-3 ovarian = system: SK-OV-3 ovarian
M14 melanoma = system: M14 melanoma
TK-10 renal = system: TK-10 renal
SR leukemia = system: SR leukemia

For `CC(C)C[C@H](NC(=O)[C@H]1O[C@@H]1C(=O)O)C(=O)NCCc1ccc(O)cc1`, the GI50 (NCI-H226 lung) was > 100 µM, the TGI (NCI-H226 lung) was > 100 µM and the GI50 (UACC-257 melanoma) was > 100 µM. The TGI (UACC-257 melanoma) was > 100 µM, the GI50 (UO-31 renal) was 38.4 µM and the TGI (UO-31 renal) was > 100 µM. The GI50 (HOP-62 NSCLC) was > 100 µM, the TGI (HOP-62 NSCLC) was > 100 µM and the GI50 (SK-MEL-2 melanoma) was > 100 µM. For the same compound, the TGI (SK-MEL-2 melanoma) was > 100 µM, the GI50 (HS 578T breast) was > 100 µM and the TGI (HS 578T breast) was > 100 µM. For the same compound, the GI50 (SW-620 colon) was > 100 µM, the TGI (SW-620 colon) was > 100 µM and the GI50 (K-562 leukemia) was > 100 µM. For the same compound, the TGI (K-562 leukemia) was > 100 µM, the GI50 (T-47D breast) was > 100 µM and the TGI (T-47D breast) was > 100 µM. For the same compound, the GI50 (MALME-3M melanoma) was > 100 µM, the TGI (MALME-3M melanoma) was > 100 µM and the GI50 (NCI-H460 lung) was > 100 µM. The TGI (NCI-H460 lung) was > 100 µM, the GI50 (SK-MEL-5 melanoma) was > 100 µM and the TGI (SK-MEL-5 melanoma) was > 100 µM. For the same compound, the GI50 (NCI/ADR-RES ovarian) was > 100 µM, the TGI (NCI/ADR-RES ovarian) was > 100 µM and the GI50 (ACHN renal) was > 100 µM. The TGI (ACHN renal) was > 100 µM, the GI50 (UACC-62 melanoma) was > 100 µM and the TGI (UACC-62 melanoma) was > 100 µM. For the same compound, the GI50 (786-0 renal) was > 100 µM, the TGI (786-0 renal) was > 100 µM and the GI50 (A549 NSCLC) was > 100 µM. The TGI (A549 NSCLC) was > 100 µM, the GI50 (SF-268 CNS) was > 100 µM and the TGI (SF-268 CNS) was > 100 µM. The GI50 (EKVX NSCLC) was > 100 µM, the TGI (EKVX NSCLC) was > 100 µM and the GI50 (COLO 205 colon) was > 100 µM. For the same compound, the TGI (COLO 205 colon) was > 100 µM, the GI50 (MDA-MB-231 breast) was > 100 µM and the TGI (MDA-MB-231 breast) was > 100 µM. The GI50 (BT-549 breast) was > 100 µM, the TGI (BT-549 breast) was > 100 µM and the GI50 (RXF 393 renal) was > 100 µM. For the same compound, the TGI (RXF 393 renal) was > 100 µM, the GI50 (PC-3 prostate) was > 100 µM and the TGI (PC-3 prostate) was > 100 µM. For the same compound, the GI50 (LOX IMVI melanoma) was 74.1 µM, the TGI (LOX IMVI melanoma) was > 100 µM and the GI50 (MDA-MB-435) was > 100 µM. For the same compound, the TGI (MDA-MB-435) was > 100 µM, the GI50 (OVCAR-3 ovarian) was > 100 µM and the TGI (OVCAR-3 ovarian) was > 100 µM. For the same compound, the GI50 (CAKI-1 renal) was > 100 µM, the TGI (CAKI-1 renal) was > 100 µM and the GI50 (HCC-2998 colon) was > 100 µM. The TGI (HCC-2998 colon) was > 100 µM, the GI50 (HOP-92 NSCLC) was > 100 µM and the TGI (HOP-92 NSCLC) was > 100 µM. The GI50 (DU-145 prostate) was > 100 µM, the TGI (DU-145 prostate) was > 100 µM and the GI50 (HCT-15 colon) was > 100 µM. For the same compound, the TGI (HCT-15 colon) was > 100 µM, the GI50 (OVCAR-8 ovarian) was > 100 µM and the TGI (OVCAR-8 ovarian) was > 100 µM. For the same compound, the GI50 (CCRF-CEM leukemia) was > 100 µM, the TGI (CCRF-CEM leukemia) was > 100 µM and the GI50 (SNB-75 CNS) was > 100 µM. The TGI (SNB-75 CNS) was > 100 µM, the GI50 (U251 CNS) was > 100 µM and the TGI (U251 CNS) was > 100 µM. The GI50 (NCI-H522 lung) was > 100 µM, the TGI (NCI-H522 lung) was > 100 µM and the GI50 (SNB-19 CNS) was > 100 µM. For the same compound, the TGI (SNB-19 CNS) was > 100 µM, the GI50 (SK-MEL-28 melanoma) was > 100 µM and the TGI (SK-MEL-28 melanoma) was > 100 µM. For the same compound, the GI50 (OVCAR-5 ovarian) was > 100 µM, the TGI (OVCAR-5 ovarian) was > 100 µM and the GI50 (IGROV1 ovarian) was > 100 µM. For the same compound, the TGI (IGROV1 ovarian) was > 100 µM, the GI50 (RPMI-8226 leukemia) was > 100 µM and the TGI (RPMI-8226 leukemia) was > 100 µM. The GI50 (SF-295 CNS) was > 100 µM, the TGI (SF-295 CNS) was > 100 µM and the GI50 (MOLT-4 leukemia) was > 100 µM. For the same compound, the TGI (MOLT-4 leukemia) was > 100 µM, the GI50 (MCF7 breast) was > 100 µM and the TGI (MCF7 breast) was > 100 µM. The GI50 (KM12 colon) was > 100 µM, the TGI (KM12 colon) was > 100 µM and the GI50 (HT29 colon) was > 100 µM. For the same compound, the TGI (HT29 colon) was > 100 µM, the GI50 (SN12C renal) was > 100 µM and the TGI (SN12C renal) was > 100 µM. The GI50 (HCT-116 colon) was > 100 µM, the TGI (HCT-116 colon) was > 100 µM and the GI50 (NCI-H23 lung) was > 100 µM. The TGI (NCI-H23 lung) was > 100 µM, the GI50 (SF-539 CNS) was > 100 µM and the TGI (SF-539 CNS) was > 100 µM. For the same compound, the GI50 (SK-OV-3 ovarian) was > 100 µM, the TGI (SK-OV-3 ovarian) was > 100 µM and the GI50 (M14 melanoma) was > 100 µM. For the same compound, the TGI (M14 melanoma) was > 100 µM, the GI50 (TK-10 renal) was > 100 µM and the TGI (TK-10 renal) was > 100 µM.

With `N#Cc1c2cccnc2c2nnc3cc(Cl)c(Cl)cc3n12` the GI50 (SK-MEL-2 melanoma) was 3.33 µM, the TGI (SK-MEL-2 melanoma) was > 100 µM and the GI50 (K-562 leukemia) was 3.52 µM. For the same compound, the TGI (K-562 leukemia) was > 100 µM, the GI50 (T-47D breast) was 1.6 µM and the TGI (T-47D breast) was 4 µM. The GI50 (SK-MEL-5 melanoma) was > 100 µM, the TGI (SK-MEL-5 melanoma) was > 100 µM and the GI50 (786-0 renal) was > 100 µM. The TGI (786-0 renal) was > 100 µM, the GI50 (A549 NSCLC) was > 100 µM and the TGI (A549 NSCLC) was > 100 µM. The GI50 (SF-268 CNS) was 2.26 µM, the TGI (SF-268 CNS) was 5.25 µM and the GI50 (OVCAR-3 ovarian) was 1.83 µM. The TGI (OVCAR-3 ovarian) was 3.27 µM, the GI50 (CCRF-CEM leukemia) was 3.06 µM and the TGI (CCRF-CEM leukemia) was > 100 µM. For the same compound, the GI50 (SNB-75 CNS) was 1.54 µM, the TGI (SNB-75 CNS) was 3.96 µM and the GI50 (OVCAR-5 ovarian) was > 100 µM. For the same compound, the TGI (OVCAR-5 ovarian) was > 100 µM, the GI50 (MOLT-4 leukemia) was 3.59 µM and the TGI (MOLT-4 leukemia) was > 100 µM. The GI50 (SR leukemia) was 0.923 µM, the TGI (SR leukemia) was 7.51 µM and the GI50 (NCI-H23 lung) was 2.81 µM. The TGI (NCI-H23 lung) was > 100 µM, the GI50 (SK-OV-3 ovarian) was > 100 µM and the TGI (SK-OV-3 ovarian) was > 100 µM. For the same compound, the GI50 (TK-10 renal) was > 100 µM and the TGI (TK-10 renal) was > 100 µM.

— PubChem BioAssay (NCI)
